pIC50: −log10 of the molar value. Active and inactive are the calls of the source. The calls are words filed in the database; no cut-off is given here.
Experiments:
OVCAR-3 = assay: Antiproliferative activity against human OVCAR3 cells after 24 hrs by MTT assay; type: functional, cell-based; conditions: OVCAR-3, 24 h
A549 [1] = assay: Induction of apoptosis in human A549 cells assessed as upregulation of bax protein expression at 0.5 to 3 uM after 24 hrs by Western blot method; type: functional, cell-based
A549 [2] = assay: Induction of apoptosis in human A549 cells assessed as viable cells at 1 uM after 24 hrs by annexin V-FITC/propidium iodide staining-based flow cytometric method (reference value: 97.7%); type: functional; conditions: A549, 24 h, read-out: Activity
A549 [3] = assay: Antiproliferative activity against human A549 cells at 0.512 uM after 24 hrs by MTT assay relative to control; type: functional
[4] = Selectivity index, ratio of CC50 for human HTB125 cells to IC50 for human A549 cells; type: toxicity; conditions: HTB125 cells (CC50) versus A549 cells (IC50)
A549 [5] = assay: Induction of apoptosis in human A549 cells assessed as early apoptotic cells at 3 uM after 24 hrs by annexin V-FITC/propidium iodide staining-based flow cytometric method (reference value: 1.2%); type: functional
A549 [6] = assay: Induction of apoptosis in human A549 cells assessed as late apoptotic cells at 1.5 uM after 24 hrs by annexin V-FITC/propidium iodide staining-based flow cytometric method (reference value: 1.1%); type: functional
A549 [7] = assay: Induction of apoptosis in human A549 cells assessed as viable cells at 1.5 uM after 24 hrs by annexin V-FITC/propidium iodide staining-based flow cytometric method (reference value: 97.7%); type: functional; conditions: A549, 24 h, read-out: Activity
A549 [8] = assay: Antiproliferative activity against human A549 cells at 20 uM after 24 hrs by MTT assay relative to control; type: functional
A549 [9] = assay: Antiproliferative activity against human A549 cells at 8 uM after 24 hrs by MTT assay relative to control; type: functional
A549 [10] = assay: Induction of apoptosis in human A549 cells assessed as necrotic cells at 1.5 uM after 24 hrs by annexin V-FITC/propidium iodide staining-based flow cytometric method (reference value: 0%); type: functional
A549 [11] = assay: Induction of apoptosis in human A549 cells assessed as late apoptotic cells at 0.5 uM after 24 hrs by annexin V-FITC/propidium iodide staining-based flow cytometric method (reference value: 1.1%); type: functional
A549 [12] = assay: Antiproliferative activity against human A549 cells after 24 hrs by MTT assay; type: functional, cell-based; conditions: A549, 24 h
A549 [13] = assay: Antiproliferative activity against human A549 cells at 1.28 uM after 24 hrs by MTT assay relative to control; type: functional
A549 [14] = assay: Induction of apoptosis in human A549 cells assessed as decrease in ratio of Bcl2/Bax at 1 uM after 24 hrs by Western blot method relative to control; type: functional
A549 [15] = assay: Induction of apoptosis in human A549 cells assessed as decrease in ratio of Bcl2/Bax at 3 uM after 24 hrs by Western blot method relative to control; type: functional
A549 [16] = assay: Induction of apoptosis in human A549 cells assessed as necrotic cells at 3 uM after 24 hrs by annexin V-FITC/propidium iodide staining-based flow cytometric method (reference value: 0%); type: functional
A549 [17] = assay: Induction of apoptosis in human A549 cells assessed as early apoptotic cells at 1.5 uM after 24 hrs by annexin V-FITC/propidium iodide staining-based flow cytometric method (reference value: 1.2%); type: functional
A549 [18] = assay: Induction of apoptosis in human A549 cells assessed as early apoptotic cells at 0.5 uM after 24 hrs by annexin V-FITC/propidium iodide staining-based flow cytometric method (reference value: 1.2%); type: functional
[19] = Selectivity index, ratio of CC50 for human IOSE80 cells to IC50 for human A549 cells; type: toxicity; conditions: IOSE80 cells (CC50) versus A549 cells (IC50)
A549 [20] = assay: Induction of apoptosis in human A549 cells assessed as increase in cleaved caspase-3 levels at 0.5 to 3 uM after 24 hrs by Western blot method; type: functional, cell-based
[21] = Selectivity index, ratio of CC50 for human GES1 cells to IC50 for human A549 cells; type: toxicity; conditions: GES1 cells (CC50) versus A549 cells (IC50)
A549 [22] = assay: Induction of apoptosis in human A549 cells assessed as decrease in ratio of Bcl2/Bax at 0.5 uM after 24 hrs by Western blot method relative to control; type: functional
A549 [23] = assay: Induction of apoptosis in human A549 cells assessed as necrotic cells at 0.5 uM after 24 hrs by annexin V-FITC/propidium iodide staining-based flow cytometric method (reference value: 0%); type: functional
A549 [24] = assay: Induction of apoptosis in human A549 cells assessed as late apoptotic cells at 1 uM after 24 hrs by annexin V-FITC/propidium iodide staining-based flow cytometric method (reference value: 1.1%); type: functional
SGC-7901 = assay: Antiproliferative activity against human SGC7901 cells after 24 hrs by MTT assay; type: functional, cell-based; conditions: SGC-7901, 24 h
A549 [25] = assay: Induction of apoptosis in human A549 cells assessed as decrease in ratio of Bcl2/Bax at 1.5 uM after 24 hrs by Western blot method relative to control; type: functional
A549 [26] = assay: Antiproliferative activity against human A549 cells at 3.2 uM after 24 hrs by MTT assay relative to control; type: functional
A549 [27] = assay: Induction of apoptosis in human A549 cells assessed as late apoptotic cells at 3 uM after 24 hrs by annexin V-FITC/propidium iodide staining-based flow cytometric method (reference value: 1.1%); type: functional
[28] = Selectivity index, ratio of CC50 for HPAEpiC to IC50 for human A549 cells; type: toxicity; conditions: HPAEpiC cells (CC50) versus A549 cells (IC50)
A549 [29] = assay: Induction of apoptosis in human A549 cells assessed as viable cells at 0.5 uM after 24 hrs by annexin V-FITC/propidium iodide staining-based flow cytometric method (reference value: 97.7%); type: functional; conditions: A549, 24 h, read-out: Activity
MDA-MB-231 = assay: Antiproliferative activity against human MDA-MB-231 cells after 24 hrs by MTT assay; type: functional, cell-based; conditions: MDA-MB-231, 24 h
A549 [30] = assay: Induction of apoptosis in human A549 cells assessed as necrotic cells at 1 uM after 24 hrs by annexin V-FITC/propidium iodide staining-based flow cytometric method (reference value: 0%); type: functional
A549 [31] = assay: Induction of apoptosis in human A549 cells assessed as viable cells at 3 uM after 24 hrs by annexin V-FITC/propidium iodide staining-based flow cytometric method (reference value: 97.7%); type: functional; conditions: A549, 24 h, read-out: Activity
A549 [32] = assay: Induction of apoptosis in human A549 cells assessed as early apoptotic cells at 1 uM after 24 hrs by annexin V-FITC/propidium iodide staining-based flow cytometric method (reference value: 1.2%); type: functional

pIC50 (OVCAR-3): 5.68 | pIC50 (A549 [12]): 5.90 | pIC50 (SGC-7901): 5.74 | pIC50 (MDA-MB-231): 5.35
SMILES: O=C(NNC(=O)c1ccccc1NS(=O)(=O)c1cnc(O)nc1O)c1cccc(Cl)c1
Activity (A549 [1]): Active | viability at 1 µM (A549 [2]): 87.4% | Activity (A549 [3]): 35.83% | selectivity ratio [4]: 5.73 | Activity (A549 [5]): 35.5% | Activity (A549 [6]): 2.5% | viability at 1.5 µM (A549 [7]): 77.9% | Activity (A549 [8]): 82.54% | Activity (A549 [9]): 66.28% | Activity (A549 [10]): 0% | Activity (A549 [11]): 1.6% | Activity (A549 [13]): 51.21% | fold change (FC) (A549 [14]): 0.54 | fold change (FC) (A549 [15]): 0.17 | Activity (A549 [16]): 0.4% | Activity (A549 [17]): 19.6% | Activity (A549 [18]): 6.9% | selectivity ratio [19]: 11.3 | Activity (A549 [20]): Active | selectivity ratio [21]: 14.2 | fold change (FC) (A549 [22]): 0.8 | Activity (A549 [23]): 0.1% | Activity (A549 [24]): 2.7% | fold change (FC) (A549 [25]): 0.3 | Activity (A549 [26]): 55.39% | Activity (A549 [27]): 3.9% | selectivity ratio [28]: 16.7 | viability at 0.5 µM (A549 [29]): 91.4% | Activity (A549 [30]): 0.1% | viability at 3 µM (A549 [31]): 60.2% | Activity (A549 [32]): 9.8%

From ChEMBL document CHEMBL4152276, “Design, synthesis and biological evaluation of N-phenyl-(2,4-dihydroxypyrimidine-5-sulfonamido)benzoyl hydrazide derivatives as thymidylate synthase (TS) inhibitors and as potential antitumor drugs” (Eur J Med Chem, 2018)
